For the assay, the target named is T1, JNK3 (Homo sapiens, UniProt P53779).
T1 construct: One such construct encodes amino acid residues Ser40-Glu402 of JNK3α1 and is preceded by Met and Gly residues; Met-Gly (initiation methionine plus glycine added for the NcoI site); made in house; host or cells: E. coli BL21 (DE3)
As to the kind of experiment: JNK inhibition assay: spectrophotometric coupled-enzyme assay with activated JNK3. The format is biochemical. The settings on record: activated JNK3 10 nM, 10 μM ATP, 200 μM EGF receptor peptide, 30° C., competitive inhibition model. From the text: A BLAST search of the EST database using the published JNK3α1 cDNA as a query identified an EST clone (#632588) that contained the entire coding sequence for human JNK3α1. Polymerase chain reactions (PCR) using pfu polymerase (Strategene) were used to introduce restriction sites into the cDNA for cloning into the pET-15B expression vector at the NcoI and BamHI sites. The protein was expressed in E. coli. […] This truncation corresponds to Ser 2 of JNK1 and JNK2 proteins, and is preceded by a methionine (initiation) and a glycine residue. The glycine residue was added in order to introduce an NcoI site for cloning into the expression vector. In addition, systematic C-terminal truncations were performed by PCR to identify a construct that give rise to diffraction-quality crystals.
5 mg of JNK3 was diluted to 0.5 mg/ml in 50 mM HEPES buffer, pH 7.5, containing 100 mM NaCl, 5 mM DTT, 20 mM MgCl2 and 1 mM ATP. GST-MKK7(DD) was added at a molar ratio of 1:2.5 GST-MKK7:JNK3. After incubation for 30 minutes at 25° C., the reaction mixture was concentrated 5-fold by ultrafiltration in a Centriprep-30 (Amicon, Beverly, Mass.), diluted to 10 ml and an additional 1 mM ATP added. This procedure was repeated three times to remove ADP and replenish ATP. The final addition of ATP was 5 mM and the mixture incubated overnight at 4° C.
The activated JNK3/GST-MKK7(DD) reaction mixture was exchanged into 50 mM HEPES buffer, pH 7.5, containing 5 mM DTT and 5% glycerol (w/v) by dialysis or ultrafiltration. The reaction mixture was adjusted to 1.1 M potassium phosphate, pH 7.5, and purified by hydrophobic interaction chromatography (at 25° C.) using a Rainin Hydropore column. […] Activated JNK3 (i.e. doubly phosphorylated JNK3) was stored at −70° C. at 0.25-1 mg/ml.
Compounds were assayed for the inhibition of JNK3 by a spectrophotometric coupled-enzyme assay. In this assay, a fixed concentration of activated JNK3 (10 nM) was incubated with various concentrations of a potential inhibitor dissolved in DMSO for 10 minutes at 30° C. in a buffer containing 0.1 M HEPES buffer, pH 7.5, containing 10 mM MgCl2, 2.5 mM phosphoenolpyruvate, 200 μM NADH, 150 μg/mL pyruvate kinase, 50 μg/mL lactate dehydrogenase, and 200 μM EGF receptor peptide. […] The reaction was initiated by the addition of 10 μM ATP and the assay plate is inserted into the spectrophotometer's assay plate compartment that was maintained at 30° C. The decrease of absorbance at 340 nm was monitored as a function of time. The rate data as a function of inhibitor concentration was fitted to competitive inhibition kinetic model to determine the Ki.

Where only a bound is given, the exact number is not on record here.

T1 sequence (P53779 40-402): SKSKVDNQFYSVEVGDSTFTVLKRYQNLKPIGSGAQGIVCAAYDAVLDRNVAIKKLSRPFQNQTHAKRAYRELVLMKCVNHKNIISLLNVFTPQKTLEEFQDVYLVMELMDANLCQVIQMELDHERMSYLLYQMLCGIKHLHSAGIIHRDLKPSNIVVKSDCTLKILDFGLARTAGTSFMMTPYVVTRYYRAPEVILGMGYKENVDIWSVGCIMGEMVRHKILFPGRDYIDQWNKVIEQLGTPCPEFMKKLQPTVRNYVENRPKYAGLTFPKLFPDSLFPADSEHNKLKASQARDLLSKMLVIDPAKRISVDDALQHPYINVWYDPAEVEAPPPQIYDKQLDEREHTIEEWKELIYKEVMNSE

The Ki is the equilibrium dissociation constant of an inhibitor or competing ligand from its target. For the compound `Cc1ccc2c(c1)/C(=N/O)C(=O)N2Cc1cccc(C(F)(F)F)c1` [Compound 1], the Ki was at least 1 µM.

As for `O=C1/C(=N\O)c2ccccc2N1Cc1c(Cl)cccc1Cl` [Compound 2], the Ki was under 1 µM.

Consider `O=C1/C(=N\O)c2cc(Cl)ccc2N1Cc1ccc(Cl)cc1` [Compound 3], for which the Ki was at least 1 µM.

With `O=C1/C(=N\O)c2cc(Cl)ccc2N1Cc1c(Cl)cccc1Cl` [Compound 4], the Ki is under 1 µM.

On to `O=C1/C(=N\O)c2ccccc2N1Cc1ccc(Cl)c(Cl)c1` [Compound 5], for which the Ki is under 1 µM.

As to `O=C1/C(=N\O)c2ccccc2N1Cc1cccc(C(F)(F)F)c1` [Compound 6], the Ki is at least 1 µM.

As to `O=C1/C(=N\O)c2ccccc2N1Cc1ccc(Cl)cc1Cl` [Compound 7], the Ki is under 1 µM.

`Cc1ccc(CN2C(=O)/C(=N\O)c3ccccc32)cc1` [Compound 8]: the Ki is at least 1 µM.

With `O=C1/C(=N\O)c2ccccc2N1Cc1cccc(Cl)c1` [Compound 9], the Ki is at least 1 µM.

As to `O=C1/C(=N\O)c2ccccc2N1Cc1ccc(Cl)cc1` [Compound 10], the Ki is at least 1 µM.

With `O=C1/C(=N\O)c2cc([N+](=O)[O-])ccc2N1Cc1ccc(Cl)cc1Cl` [Compound 11], the Ki was at least 1 µM.

On to `O=C1/C(=N\O)c2cc([N+](=O)[O-])ccc2N1Cc1ccc(Cl)cc1` [Compound 12], for which the Ki is at least 1 µM.

Take `O=C1/C(=N\O)c2cc(Cl)ccc2N1Cc1ccc(Cl)c(Cl)c1` [Compound 13]: the Ki is under 1 µM.

As to `Cc1ccc2c(c1)/C(=N/O)C(=O)N2Cc1ccc(Cl)cc1` [Compound 14], the Ki was at least 1 µM.

In the case of `O=C1/C(=N\O)c2cc(Cl)ccc2N1Cc1cccc(C(F)(F)F)c1` [Compound 15], the Ki is at least 1 µM.

Consider `O=C1/C(=N\O)c2ccccc2N1Cc1ccc(F)cc1` [Compound 17], for which the Ki is at least 1 µM.

With `O=C1/C(=N\O)c2ccccc2N1Cc1ccc([N+](=O)[O-])cc1` [Compound 18], the Ki is at least 1 µM.

`Cc1cccc(CN2C(=O)/C(=N\O)c3ccccc32)c1` [Compound 19]: the Ki was at least 1 µM.

Take `O=C1/C(=N\O)c2ccccc2N1Cc1cccc(F)c1` [Compound 20]: the Ki was at least 1 µM.

In the case of `O=C1/C(=N\O)c2ccccc2N1Cc1ccccc1F` [Compound 21], the Ki is at least 1 µM.

Consider `O=C1/C(=N\O)c2cc(Br)ccc2N1Cc1ccccc1` [Compound 23], for which the Ki was at least 1 µM.

Take `O=C1/C(=N\O)c2cc(Br)ccc2N1Cc1ccc(F)cc1` [Compound 24]: the Ki is at least 1 µM.

In the case of `O=C1/C(=N\O)c2cc(Br)ccc2N1Cc1ccc([N+](=O)[O-])cc1` [Compound 25], the Ki was at least 1 µM.

For `Cc1ccc(CN2C(=O)/C(=N\O)c3cc(Br)ccc32)cc1` [Compound 26], the Ki is at least 1 µM.

As to `Cc1cccc(CN2C(=O)/C(=N\O)c3cc(Br)ccc32)c1` [Compound 27], the Ki is at least 1 µM.

For `O=C1/C(=N\O)c2cc(Br)ccc2N1Cc1cccc(F)c1` [Compound 28], the Ki is at least 1 µM.

In the case of `O=C1/C(=N\O)c2cc(Br)ccc2N1Cc1ccccc1F` [Compound 29], the Ki was at least 1 µM.

Regarding `Cc1ccc(CN2C(=O)/C(=N\O)c3cc([N+](=O)[O-])ccc32)cc1` [Compound 33], the Ki is at least 1 µM.

In the case of `Cc1cccc(CN2C(=O)/C(=N\O)c3cc([N+](=O)[O-])ccc32)c1` [Compound 34], the Ki was at least 1 µM.

For the compound `Cc1ccc2c(c1)/C(=N/O)C(=O)N2Cc1ccc([N+](=O)[O-])cc1` [Compound 39], the inhibition constant Ki was at least 1 µM.

For `O=C1/C(=N\O)c2cc(Cl)ccc2N1Cc1ccccc1` [Compound 45], the Ki was at least 1 µM.

Consider `O=C1/C(=N\O)c2cc(Cl)ccc2N1Cc1ccc(F)cc1` [Compound 46], for which the Ki is at least 1 µM.

For the compound `Cc1ccc(CN2C(=O)/C(=N\O)c3cc(Cl)ccc32)cc1` [Compound 48], the Ki was at least 1 µM.

For the compound `Cc1cccc(CN2C(=O)/C(=N\O)c3cc(Cl)ccc32)c1` [Compound 49], the Ki was at least 1 µM.

With `O=C1/C(=N\O)c2cc(Cl)ccc2N1Cc1cccc(F)c1` [Compound 50], the Ki is at least 1 µM.

In the case of `O=C1/C(=N\O)c2cc(Cl)ccc2N1Cc1ccccc1F` [Compound 51], the Ki was at least 1 µM.

Regarding `O=C1/C(=N\O)c2cc(F)ccc2N1Cc1ccc(F)cc1` [Compound 54], the Ki is at least 1 µM.

With `O=C1/C(=N\O)c2cc(F)ccc2N1Cc1ccc([N+](=O)[O-])cc1` [Compound 55], the Ki is at least 1 µM.

Consider `Cc1ccc(CN2C(=O)/C(=N\O)c3cc(F)ccc32)cc1` [Compound 56], for which the Ki was at least 1 µM.

Consider `Cc1cccc(CN2C(=O)/C(=N\O)c3cc(F)ccc32)c1` [Compound 57], for which the Ki was at least 1 µM.

Regarding `O=C1/C(=N\O)c2cc(F)ccc2N1Cc1cccc(F)c1` [Compound 58], the Ki is at least 1 µM.

On to `O=C1/C(=N\O)c2cc(F)ccc2N1Cc1ccccc1F` [Compound 59], for which the Ki is at least 1 µM.

For the compound `COc1ccc(CN2C(=O)/C(=N\O)c3ccccc32)cc1` [Compound 61], the Ki is at least 1 µM.

Regarding `O=C1/C(=N\O)c2ccccc2N1Cc1cccc([N+](=O)[O-])c1` [Compound 62], the Ki is under 1 µM.

For the compound `N#Cc1ccccc1CN1C(=O)/C(=N\O)c2ccccc21` [Compound 63], the Ki was at least 1 µM.

Turning to `COc1ccccc1-c1nc(CN2C(=O)/C(=N\O)c3ccccc32)no1` [Compound 64], the Ki was at least 1 µM.

For the compound `COc1ccc(-c2nc(CN3C(=O)/C(=N\O)c4ccccc43)no2)cc1` [Compound 65], the Ki was at least 1 µM.

Turning to `O=C1/C(=N\O)c2ccccc2N1Cc1cccc(Oc2ccccc2)c1` [Compound 66], the Ki is at least 1 µM.

As for `CS(=O)(=O)c1ccc(CN2C(=O)/C(=N\O)c3ccccc32)cc1` [Compound 67], the Ki is at least 1 µM.

On to `COc1cc(CN2C(=O)/C(=N\O)c3ccccc32)cc(OC)c1` [Compound 68], for which the Ki was under 1 µM.

On to `O=C1/C(=N\O)c2ccccc2N1Cc1cc(F)cc2c1OCOC2` [Compound 69], for which the Ki is under 1 µM.

With `O=C1/C(=N\O)c2ccccc2N1Cc1ncc(C(F)(F)F)cc1Cl` [Compound 70], the Ki is at least 1 µM.

Regarding `O=C1/C(=N\O)c2ccccc2N1Cc1csc(-c2ccc(Cl)cc2)n1` [Compound 71], the Ki was at least 1 µM.

For `COc1ccc(CN2C(=O)/C(=N\O)c3cc(Cl)ccc32)cc1` [Compound 72], the Ki is at least 1 µM.

As to `O=C1/C(=N\O)c2cc(Cl)ccc2N1Cc1cccc(Oc2ccccc2)c1` [Compound 73], the Ki is at least 1 µM.

As for `COc1cc(CN2C(=O)/C(=N\O)c3cc(Cl)ccc32)cc(OC)c1` [Compound 74], the Ki was under 1 µM.

Regarding `O=C1/C(=N\O)c2cc(Cl)ccc2N1Cc1cc(F)cc2c1OCCO2` [Compound 75], the Ki was under 1 µM.

`O=C1/C(=N\O)c2cc(Cl)ccc2N1Cc1ccccn1` [Compound 76]: the Ki is at least 1 µM.

Regarding `O=C1/C(=N\O)c2cc(Cl)ccc2N1Cc1csc(-c2ccc(Cl)cc2)n1` [Compound 77], the Ki was under 1 µM.

`COc1ccc(CN2C(=O)/C(=N\O)c3cc(F)ccc32)cc1` [Compound 78]: the Ki was at least 1 µM.

As to `O=C1/C(=N\O)c2cc(F)ccc2N1Cc1cccc([N+](=O)[O-])c1` [Compound 79], the Ki is at least 1 µM.

Regarding `N#Cc1ccccc1CN1C(=O)/C(=N\O)c2cc(F)ccc21` [Compound 80], the Ki is at least 1 µM.

Take `COc1ccccc1-c1nc(CN2C(=O)/C(=N\O)c3cc(F)ccc32)no1` [Compound 81]: the Ki was at least 1 µM.

For `O=C1/C(=N\O)c2cc(F)ccc2N1Cc1cccc(Oc2ccccc2)c1` [Compound 82], the Ki is at least 1 µM.

Turning to `CS(=O)(=O)c1ccc(CN2C(=O)/C(=N\O)c3cc(F)ccc32)cc1` [Compound 83], the Ki was at least 1 µM.

In the case of `COc1cc(CN2C(=O)/C(=N\O)c3cc(F)ccc32)cc(OC)c1` [Compound 84], the Ki was under 1 µM.

With `O=C1/C(=N\O)c2cc(F)ccc2N1Cc1cc(F)cc2c1OCOC2` [Compound 85], the Ki was under 1 µM.

Values taken from patent publication US7612065B2, “Inhibitors of c-JUN N-terminal kinases (JNK)” (priority 2007, dated 2009).
